Results reported in article PMC8445441, “Elucidating the mechanism by which synthetic helper peptides sensitize Pseudomonas aeruginosa to multiple antibiotics” (PLoS Pathogens, 2021).
Like-named read-outs stand apart in the source and are kept apart here.

Tests used:
P. aeruginosa AUMC-Pa-2 = settings: strain AUMC-Pa-2; antibiotic + D-11 (MICb/MICbc 64/4)
How it was run: (§1)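 Two-fold serial dilutions in MHB received an equal volume of bacteria (suspension about 1 × 10^6 CFU/mL). Plates were held 18 h at 37 °C, then read visually for growth. Triplicate, CLSI-based.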

P. aeruginosa AUMC-Pa-1 = settings: strain AUMC-Pa-1; antibiotic + D-11 (MICb/MICbc 128/4)
How it was run: as §1

P. aeruginosa PAK = assay: microbe, parasite or virus in culture; design: MICa: MIC of the antibiotic / MICac: MIC of the antibiotic in the combination: unit not given beside the values
How it was run: as §1

P. aeruginosa NR-31041 = assay: microbe, parasite or virus in culture; design: MICa: MIC of the antibiotic / MICac: MIC of the antibiotic in the combination: unit not given beside the values
How it was run: as §1

P. aeruginosa ATCC27853 = assay: microbe, parasite or virus in culture; design: MICa: MIC of the antibiotic / MICac: MIC of the antibiotic in the combination: unit not given beside the values
How it was run: as §1

P. aeruginosa NR-31040 = assay: microbe, parasite or virus in culture; design: MICa: MIC of the antibiotic / MICac: MIC of the antibiotic in the combination: unit not given beside the values
How it was run: as §1

P. aeruginosa PA14 = assay: microbe, parasite or virus in culture; design: MICa: MIC of the antibiotic / MICac: MIC of the antibiotic in the combination: unit not given beside the values
How it was run: as §1

P. aeruginosa AUMC-Pa-6 = assay: microbe, parasite or virus in culture
How it was run: as §1

P. aeruginosa AUMC-Pa-3 = assay: microbe, parasite or virus in culture
How it was run: as §1

P. aeruginosa PAO1 = assay: microbe, parasite or virus in culture; settings: PAO1; for FICI / MICac: the MIC for the antibiotic in the combination: S3 Table
How it was run: as §1

P. aeruginosa AUMC-Pa-4 = assay: microbe, parasite or virus in culture
How it was run: as §1

P. aeruginosa AUMC-Pa-5 = assay: microbe, parasite or virus in culture
How it was run: as §1

[1] = test system: clinical P. aeruginosa isolates; assay: microbe, parasite or virus in culture; settings: Pseudomonas aeruginosa, 18 h, antibiotic alone
How it was run: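 Broth microdilution per CLSI in MHB, two-fold drug dilutions mixed with an equal volume of bacteria at about 1 × 10^6 CFU/mL. After 18 h at 37 °C, MIC taken as the lowest concentration with no visible growth; run in triplicate.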

P. aeruginosa HM-214 = settings: strain HM-214; antibiotic + D-11 (MICb/MICbc 128/4)
How it was run: as §1

In the case of `C[C@H]1COc2c(N3CCN(C)CC3)c(F)cc3c(=O)c(C(=O)O)cn1c23` [Levofloxacin], the FICI (P. aeruginosa AUMC-Pa-2) is reported as 0.563, the FICI (P. aeruginosa AUMC-Pa-1) is reported as 0.156 and the MIC (P. aeruginosa PAK; Pseudomonas aeruginosa, 18 h, read-out: MICa: MIC of the antibiotic) is reported as 0.5 µM. The FICI (P. aeruginosa PAK; strain PAK, antibiotic + D-11 (MICb/MICbc 64/4)) was 0.563, the “MICac: MIC of the antibiotic in the combination” value (shortened to “MICac: MIC of the antibiotic”) (P. aeruginosa PAK; strain PAK, with D-11 at MICbc 4, unit not given) was 0.25 and the MIC (P. aeruginosa NR-31041; Pseudomonas aeruginosa, NR31041, 18 h, read-out: MICa: MIC of the antibiotic) was 1 µM. For the same compound, the FICI (P. aeruginosa NR-31041; strain NR-31041, antibiotic + D-11 (MICb/MICbc 64/4)) was 0.313, the “MICac: MIC of the antibiotic” value (P. aeruginosa NR-31041; strain NR-31041, with D-11 at MICbc 4, unit not given) was 0.25 and the MIC (P. aeruginosa ATCC27853; Pseudomonas aeruginosa, ATCC27853, 18 h, read-out: MICa: MIC of the antibiotic) was 1 µM. For the same compound, the FICI (P. aeruginosa ATCC27853; strain ATCC27853, antibiotic + D-11 (MICb/MICbc 32/4)) was 0.250, the “MICac: MIC of the antibiotic” value (P. aeruginosa ATCC27853; strain ATCC27853, with D-11 at MICbc 4, unit not given) was 0.125 and the MIC (P. aeruginosa NR-31040; Pseudomonas aeruginosa, NR31040, 18 h, read-out: MICa: MIC of the antibiotic) was 1 µM. For the same compound, the FICI (P. aeruginosa NR-31040; strain NR-31040, antibiotic + D-11 (MICb/MICbc 128/4)) was 0.281, the “MICac: MIC of the antibiotic” value (P. aeruginosa NR-31040; strain NR-31040, with D-11 at MICbc 4, unit not given) was 0.25 and the MIC (P. aeruginosa PA14; Pseudomonas aeruginosa, PA14, 18 h, read-out: MICa: MIC of the antibiotic) was 0.5 µM. For the same compound, the FICI (P. aeruginosa PA14; strain PA14, antibiotic + D-11 (MICb/MICbc 128/4)) was 0.531, the “MICac: MIC of the antibiotic” value (P. aeruginosa PA14; strain PA14, with D-11 at MICbc 4, unit not given) was 0.25 and the MIC (P. aeruginosa AUMC-Pa-6; Pseudomonas aeruginosa, AUMCPA6, 18 h, read-out: MICa: MIC of the antibiotic) was 0.25 µM. For the same compound, the FICI (P. aeruginosa AUMC-Pa-6; strain AUMC-Pa-6, antibiotic + D-11 (MICb/MICbc 64/4)) was 1.063, the “MICac: MIC of the antibiotic” value (P. aeruginosa AUMC-Pa-6; strain AUMC-Pa-6, with D-11 at MICbc 4, unit not given) was 0.25/0.25 and the MIC (P. aeruginosa AUMC-Pa-3; Pseudomonas aeruginosa, AUMCPA3, 18 h, read-out: MICa: MIC of the antibiotic) was 0.5 µM. For the same compound, the FICI (P. aeruginosa AUMC-Pa-3; strain AUMC-Pa-3, antibiotic + D-11 (MICb/MICbc 128/4)) was 0.281, the “MICac: MIC of the antibiotic” value (P. aeruginosa AUMC-Pa-3; strain AUMC-Pa-3, with D-11 at MICbc 4, unit not given) was 0.125 and the MIC (P. aeruginosa PAO1; Pseudomonas aeruginosa, PAO1, 18 h, read-out: MICa: the MIC of antibiotics, S3 Table, antibiotic alone) was 1 µM. The FICI (P. aeruginosa PAO1; antibiotic + 2 μM D-11) was 0.125, the FICI (P. aeruginosa PAO1; antibiotic + 4 μM D-11) was 0.156 and the “MICac: the MIC for the antibiotic in the combination” value (P. aeruginosa PAO1; with 2 μM D-11) was 0.0625 µM. For the same compound, the “MICac: the MIC for the antibiotic in the combination” value (P. aeruginosa PAO1; with 4 μM D-11) was 0.03125 µM, the MIC (P. aeruginosa AUMC-Pa-4; Pseudomonas aeruginosa, AUMCPA4, 18 h, read-out: MICa: MIC of the antibiotic) was 0.5 µM and the FICI (P. aeruginosa AUMC-Pa-4; strain AUMC-Pa-4, antibiotic + D-11 (MICb/MICbc 128/4)) was 0.531. For the same compound, the “MICac: MIC of the antibiotic” value (P. aeruginosa AUMC-Pa-4; strain AUMC-Pa-4, with D-11 at MICbc 4, unit not given) was 0.25, the MIC (P. aeruginosa AUMC-Pa-5; Pseudomonas aeruginosa, AUMCPA5, 18 h, read-out: MICa: MIC of the antibiotic) was 0.5 µM and the FICI (P. aeruginosa AUMC-Pa-5; strain AUMC-Pa-5, antibiotic + D-11 (MICb/MICbc 64/4)) was 2.063. For the same compound, the “MICac: MIC of the antibiotic” value (P. aeruginosa AUMC-Pa-5; strain AUMC-Pa-5, with D-11 at MICbc 4, unit not given) was 1, the MIC ([1]; read-out: Antibiotic sensibility (MIC) of clinical P. aeruginosa isolate AUMC-Pa-1, strain AUMC-Pa-1) was 8 µM and the MIC ([1]; read-out: Antibiotic sensibility (MIC) of clinical P. aeruginosa isolate AUMC-Pa-2, strain AUMC-Pa-2) was 0.5 µM. The MIC ([1]; read-out: Antibiotic sensibility (MIC) of clinical P. aeruginosa isolate AUMC-Pa-3, strain AUMC-Pa-3) was 0.5 µM, the MIC ([1]; read-out: Antibiotic sensibility (MIC) of clinical P. aeruginosa isolate AUMC-Pa-4, strain AUMC-Pa-4) was 0.5 µM and the MIC ([1]; read-out: Antibiotic sensibility (MIC) of clinical P. aeruginosa isolate AUMC-Pa-5, strain AUMC-Pa-5) was 0.5 µM. For the same compound, the MIC ([1]; read-out: Antibiotic sensibility (MIC) of clinical P. aeruginosa isolate AUMC-Pa-6, strain AUMC-Pa-6) was 0.25 µM, the MIC ([1]; read-out: Antibiotic sensibility (MIC) of clinical P. aeruginosa isolate HM-214, strain HM-214) was 1 µM and the MIC ([1]; read-out: Antibiotic sensibility (MIC) of clinical P. aeruginosa isolate NR-31040, strain NR-31040) was 1 µM. The MIC ([1]; read-out: Antibiotic sensibility (MIC) of clinical P. aeruginosa isolate NR-31041, strain NR-31041) was 1 µM and the FICI (P. aeruginosa HM-214) was 0.531.
